Assay results reported in US20220288075A1, “METHOD AND COMPOSITION FOR TREATING PAIN” (ACADEMIA SINICA, priority 2019, published 2022).

Legend:
RISS mice = assay: RISS (repeated and intermittent sound stress) model, sensory testing (von Frey, muscle withdrawal threshold, Hargreaves); assay type: in vivo; details: darapladib 10 mg/kg i.p. once daily throughout the RISS procedure, vs vehicle; FIG. 3N
Description: Sound stressors were applied as described^14, 43 with modification. Mice were placed (3 per cage) in a 20×30×15 cm bedding cage, which was kept 25 cm below a speaker, inside a 40×50×35 cm sound-insulated box. A speaker emitted pure tones at 5 frequencies (5, 11, 13, 15 and 19 kHz) with random amplitudes varied over time for each frequency (0, 20, 60, 90, and 100 dB sound). Each tone stimulus lasted for 5 or 10 sec in random order, and mice were stimulated continuously without interval. The sound stressors continued for 30 min as a set. In the original SS (sound stress) protocol, a set of 30-min stimuli was given once a day on days 1, 3, and 4 (FIG. 1A)^14. The RISS model intensified the stress protocol by increasing the stimulus frequency: a set of sound stimulus was repeated every 3 hours for 6 times overnight (from 16:00 to 10:00), followed by resting silence for 6 hours (from 10:00 to 16:00). The procedure was repeated on days 1, 3, and 4 as for the SS protocol. The control groups were placed in similar chambers for 4 days without stress exposure. Both groups of mice had access to food and water freely during the stress period. After the stimulus procedure, mice were returned to their original home cages in the animal care facility. In both the SS and RISS protocols, the day after completing the stress stimuli is called P0; the post-stress day 1, P1; and so on. In the experimental design of the […] single-day stimuli of intermittent SS (SISS), the day after SISS is called P′0; the post-stress day 1, P′1; and so on.
Animals were placed on an elevated mesh platform, and a 0.2-mN von Frey filament was applied to the plantar surface of both hind paws. A positive response was defined as lifting, shaking, guarding, or licking paws when the stimulus was applied. For each paw, the filament was applied 5 times at 30-sec intervals.
Mice were placed individually in Acrylic cubicles mounted on a glass surface maintained at 30° C. The test was performed after acclimatization. The thermal stimulus of the radiant heat was then applied to the plantar surface of each hind paw. Each mouse was tested in three sequential trials with an interval of 2-3 min. The assay cutoff was set at 30 sec to prevent tissue damage. Paw withdrawal latencies were calculated as the mean of three measures.
Muscle withdrawal thresholds were evaluated as described^46. […]
Analgesic drugs: Pregabalin (0.3, 1, 3 or 10 mg/kg bodyweight, i.p.; Toronto Research Chemicals), morphine (0.3, 1, 3 or 10 mg/kg bodyweight, i.p.), diclofenac (1, 3 or 10 mg/kg bodyweight, i.p.; Sigma-Aldrich) or vehicle (0.9% saline) was administered, and the effect of each drug was evaluated by testing 6 mice. […]

LPC16:0 = assay: Serum LPC16:0 level in RISS mice at P0 by mass spectrometry; assay type: in vivo; details: darapladib 10 mg/kg i.p. once daily, P0, triple quadrupole MS, vs vehicle; FIG. 3N
Procedure: Antioxidants: Systemic administration of NAC (200 mg/kg bodyweight, i.p.; Sigma-Aldrich) with Tempol (100 mg/kg bodyweight, i.p.; Sigma-Aldrich) or vehicle (phosphate buffered saline; PBS) was given 30 min before and after each RISS procedure at days 1, 3 and 4 (FIG. 3M)^48-50. A total of 6 doses of drug were given during the RISS protocol. Sensory testing was performed 1 hour after the last drug injection at P0 and at P4 and P7. PAF-AH inhibitors. Darapladib (Cayman, Ann Arbor, Mich.) was solubilized in DMSO: PBS containing 1% methyl-β-cyclodextrin (1:99) and given once daily by i.p. injection at 10 mg/kg body weight. Mice were randomly assigned to receive vehicle or darapladib for 5 consecutive days during RISS (FIG. 3M). […] Triple quadrupole mass spectrometry (QqQ MS) for absolute quantitative analysis of target lipids. Targeted analysis of LPC16:0, LPC18:0 and SM(d18:1/18:0) was measured by using an Agilent-1200 liquid chromatography system coupled to an Agilent-6410 QqQ MS with an ESI interface. […] Lipidomic profiling for relative quantitative analysis. Lipids were identified by comparing the LC/MS profiles of the metabolites of interest to that of a standard compound analyzed with identical conditions, and their relative abundance among samples was further evaluated. […] Collected data were processed with Progenesis QI (Waters) for lipid identification and relative quantitative analysis.

## CCN(CC)CCN(Cc1ccc(-c2ccc(C(F)(F)F)cc2)cc1)C(=O)Cn1c(SCc2ccc(F)cc2)nc(=O)c2c1CCC2 [darapladib, N-[2-(diethylamino)ethyl]-2-{2-[(4-fluorobenzyl)sulfanyl]-4-oxo-4,5,6,7-tetrahydro-1H-cyclopenta[d]pyrimidin-1-yl}-N-{[4′-(trifluoromethyl)biphenyl-4-yl]methyl}acetamide]
RISS mice
  development of RISS-induced chronic hypersensitivity (von Frey test): prevented the development of chronic hypersensitivity
LPC16:0
  LPC16:0 production after RISS (serum level): significantly reduced
